Measurements: patent US20030199590A1, “Prostaglandin analogues for promotion of hair growth” (priority 2002, published 2003)

Assays:
[1] = target: T1, FP receptors (Swiss 3T3 cells expressing FP receptors) (Mus musculus, UniProt P43117); assay: FP receptor-mediated phosphoinositide turnover assay; type: cell-based; conditions: Table 2; for EC50: [3H]-IPs in Swiss 3T3 cells, read-out: EC50; for % response: efficacy relative to standard
T1 construct: endogenous in cells; host or cells: Swiss 3T3 cells
T1 sequence (P43117 whole entry): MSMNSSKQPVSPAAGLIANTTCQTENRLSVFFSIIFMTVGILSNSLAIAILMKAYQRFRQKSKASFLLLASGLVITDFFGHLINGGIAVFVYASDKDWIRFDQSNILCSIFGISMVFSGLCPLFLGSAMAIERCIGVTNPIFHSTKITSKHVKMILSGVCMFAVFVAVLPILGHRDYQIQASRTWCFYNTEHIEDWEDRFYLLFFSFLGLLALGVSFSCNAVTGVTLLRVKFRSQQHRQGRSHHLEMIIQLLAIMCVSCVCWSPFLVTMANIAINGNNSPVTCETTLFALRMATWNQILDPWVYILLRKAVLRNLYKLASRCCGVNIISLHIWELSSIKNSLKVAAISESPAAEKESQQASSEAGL
Protocol: FP receptor-mediated phosphoinositide turnover assay: [^3H]Inositol phosphates ([^3H]-IPs) produced by agonist-mediated activation of phospholipase C in Swiss 3T3 cells expressing FP receptors were quantified as follows. Confluent 3T3 cells were exposed to 1.0-1.5 μCi [^3H]-myo-inositol (18.3 Ci/mmol) in 0.5 ml DMEM for 24-30 hours at 37° C. Then cells were rinsed once with DMEM/F-12 containing 10 mM LiCl, and the agonist stimulation experiment was performed in 0.5 ml of the same medium to facilitate accumulation of [^3H]-IPs. Cells were exposed to the agonist or solvent for 60 min at 37° C. (triplicate determinations), followed by aspiration of the medium and immediate addition of 1 ml of ice-cold 0.1 M formic acid. The plates were kept cold and then frozen. Samples frozen up to one week were thawed prior to chromatographic separation of radiolabeled components. The cell lysates (0.9 ml) were loaded on columns packed with approximately 1 ml AG 1-X8 anion exchange resin. The elution procedure consisted of a wash with 10 ml of H2O, then 8 ml of 50 mM ammonium formate, and finally 4 ml of 1.2 M ammonium formate with 0.1 M formic acid, which was collected in a scintillation vial. To this eluate was added 15 ml of scintillation fluid and the total [^3H]-IPs determined by scintillation counting on a beta-counter. Data were analyzed by the sigmoidal fit function of the Origin Scientific Graphics software (Microcal Software, Northampton, Mass.) to determine agonist potency (EC50 value) and efficacy, relative to the standard cloprostenol.

FP receptors = target: T2, FP receptors (Bos taurus, UniProt P37289); assay: FP receptor binding assay ([3H]PGF2α, bovine corpus luteum membranes); conditions: Table 2; FP receptor binding
T2 construct: Washed total particulate bovine corpus luteum membranes; from tissue; host or cells: bovine corpus luteum membranes
T2 sequence (P37289 whole entry): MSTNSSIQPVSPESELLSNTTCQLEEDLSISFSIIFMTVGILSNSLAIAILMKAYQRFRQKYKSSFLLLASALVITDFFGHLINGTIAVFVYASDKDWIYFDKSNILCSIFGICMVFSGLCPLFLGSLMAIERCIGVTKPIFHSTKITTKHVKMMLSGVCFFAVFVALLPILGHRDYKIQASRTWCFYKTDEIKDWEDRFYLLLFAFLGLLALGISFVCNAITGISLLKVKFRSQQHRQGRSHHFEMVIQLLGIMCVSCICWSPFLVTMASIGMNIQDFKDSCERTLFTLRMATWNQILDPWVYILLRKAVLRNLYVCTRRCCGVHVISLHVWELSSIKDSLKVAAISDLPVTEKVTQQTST
Protocol: Non-specific binding was defined with 1-10 μM unlabeled PGF2α or fluprostenol. The assays were terminated by vacuum filtration (using Whatman GF/B glass fiber filter previously soaked in 0.3% polyethyleneimine) and the data analyzed by a non-linear, iterative, curve-fitting computer program.

eyelash [2] = conditions: in some instances, U.S. Pat. No. 6,262,105; cited from earlier work
eyelash [3] = assay: Eyelash change from baseline evaluated by photographs in clinical studies; type: in vivo, patients; conditions: for Percent of Patients with Eyelash Change: Table 3; for Percent of Patients with Eyelash Change: Change Reported / Percent of Patients with Eyelash Change: Color Change / Percent of Patients with Eyelash Change: Density Change / Percent of Patients with Eyelash Change: Length Change / Percent of Patients with Eyelash Change: Thickness Change: Table 4; for change in eyelash color, length, density and/or thickness (in words): Travoprost 0.0015% and 0.004%, latanoprost 0.005% compared to travoprost
Text: Eyelash photographs of each eye were taken at determination of patient eligibility […] (baseline) and Months 1.5, 3, 4.5 and 6 in four clinical studies. Additional photographs were taken at Months 9 and 12 in two clinical studies. Eyelash change was classified using the following categories: change in eyelash color, increase in eyelash length, increase in eyelash density and increase in eyelash thickness. Two independent readers evaluated the photographs subjectively for any change from baseline in eyelash characteristics.

Compound: O=C(O)CCCCCC[C@@H]1[C@@H](/C=C/[C@@H](O)COc2cccc(Cl)c2)[C@H](O)C[C@@H]1O [Compound 86]
- EC50 [1]: 0.00492 µM
- % response [1]: 100%
- Ki (FP receptors): 0.093 µM

Compound: O=C(O)CCCCCC[C@@H]1[C@@H](/C=C/[C@H](O)COc2cccc(Cl)c2)[C@H](O)C[C@@H]1O [Compound 87]
- EC50 [1]: 0.038 µM
- % response [1]: 88%
- Ki (FP receptors): 0.73 µM

Compound: O=C(O)CCC/C=C\C[C@@H]1[C@@H](/C=C/[C@H](O)COc2cccc(C(F)(F)F)c2)[C@H](O)C[C@@H]1O [Compound 88]
- EC50 [1]: 0.0116 µM
- % response [1]: 99%
- Ki (FP receptors): 0.15 µM

Compound: O=C(O)CCC/C=C/C[C@@H]1[C@@H](/C=C/[C@@H](O)COc2cccc(C(F)(F)F)c2)[C@H](O)C[C@@H]1O [Compound 89]
- EC50 [1]: 0.041 µM
- % response [1]: 96%
- Ki (FP receptors): 0.26 µM

Compound: CC(C)OC(=O)CCC/C=C\C[C@@H]1[C@@H](CC[C@@H](O)CCc2ccccc2)[C@H](O)C[C@@H]1O [Latanoprost]
- eyelash growth in glaucoma patients (in words) (eyelash [2]): increased eyelash growth
- Percent of Patients with Eyelash Change (eyelash [3]; 0.005%): 25.8%
- Percent of Patients with Eyelash Change: Change Reported (eyelash [3]; 0.005%): 25.8%
- Percent of Patients with Eyelash Change: Color Change (eyelash [3]; 0.005%): 16.5%
- Percent of Patients with Eyelash Change: Density Change (eyelash [3]; 0.005%): 22.2%
- Percent of Patients with Eyelash Change: Length Change (eyelash [3]; 0.005%): 25.8%
- Percent of Patients with Eyelash Change: Thickness Change (eyelash [3]; 0.005%): 17.5%
- change in eyelash color, length, density and/or thickness (in words) (eyelash [3]): greatly reduced frequency

Compound: CC(C)OC(=O)CCC/C=C\C[C@@H]1[C@@H](/C=C/[C@@H](O)COc2cccc(C(F)(F)F)c2)[C@H](O)C[C@@H]1O [Travoprost]
- Percent of Patients with Eyelash Change (eyelash [3]; 0.0015%): 48.1%
- Percent of Patients with Eyelash Change (eyelash [3]; 0.004%): 61.3%
- Percent of Patients with Eyelash Change: Change Reported (eyelash [3]; 0.0015%): 48.1%
- Percent of Patients with Eyelash Change: Color Change (eyelash [3]; 0.0015%): 37.3%
- Percent of Patients with Eyelash Change: Density Change (eyelash [3]; 0.0015%): 44.6%
- Percent of Patients with Eyelash Change: Length Change (eyelash [3]; 0.0015%): 48.1%
- Percent of Patients with Eyelash Change: Thickness Change (eyelash [3]; 0.0015%): 33.8%
- Percent of Patients with Eyelash Change: Change Reported (eyelash [3]; 0.004%): 61.3%
- Percent of Patients with Eyelash Change: Color Change (eyelash [3]; 0.004%): 47.9%
- Percent of Patients with Eyelash Change: Density Change (eyelash [3]; 0.004%): 58.2%
- Percent of Patients with Eyelash Change: Length Change (eyelash [3]; 0.004%): 61.1%
- Percent of Patients with Eyelash Change: Thickness Change (eyelash [3]; 0.004%): 51.1%
- change in eyelash color, length, density and/or thickness (in words) (eyelash [3]): concentration-related change
